Test results as given in patent publication US7709495B2, “Methods and reagents for the treatment of inflammatory disorders” (CombinatoRx, Incorporated, priority 2003, dated 2010).

Columns and labels:
Assay type in all cases: cell-based
[1] = test system: white blood cells from human buffy coat; test: alamarBlue assay (toxicity/cell viability), PMA/ionomycin stimulated; details: PBMC, read-out: % Inhibition of Proliferation of PBMC PI
Protocol: (§1) A stock solution containing prednisolone (0.36 mg/ml) was prepared in DMSO. A stock solution containing ibudilast (1.84 mg/ml) was prepared in DMSO. Master plates were prepared for dilutions of the stock solutions above.
(§2) The final single agent plates were generated by transferring 1 μL of stock solution from the specific master plate to separate dilution plates containing 99 μL of media (RPMI; Gibco BRL, #11875-085), 10% fetal bovine serum (Gibco BRL, #25140-097), 2% penicillin/streptomycin (Gibco BRL, #15140-122)) using the Packard Mini-Trak liquid handler. The dilution plates were then mixed and a 10 μL aliquot transferred from each dilution plate to the final assay plate (polystyrene 384-well plate (NalgeNunc)), which had been pre-filled with 30 μL/well RPMI media containing 33 ng/mL phorbol 12-myristate 13-acetate (Sigma, P-1585) and 2.475 ng/mL ionomycin (Sigma, I-0634) or alternatively for the LPS stimulated assay RPMI media containing 2 μg/ml lipopolysaccharide (Sigma, L-4130).
(§3) The percent inhibition (% I) for each well was calculated using the following formula: % I=[(avg. untreated wells−treated well)/(avg. untreated wells)]×100
(§4) The average untreated well value (avg. untreated wells) is the arithmetic mean of 30 wells from the same assay plate treated with vehicle alone.
(§5) The toxicity of the test combination were assessed using alamarBlue® assayed in white blood cells from human buffy coat stimulated with LPS or phorbol 12-myistate 13-acetate and Ionomycin, as follows. Human white blood cells from buffy coat were diluted 1:50 in media (RPMI; Gibco BRL, #11875-085), 10% fetal bovine serum (Gibco BRL, #25140-097), 2% penicillin/streptomycin (Gibco BRL, #15140-122)) and 50 μL of the diluted white blood cells was placed in each well of the final assay plate created in the above section. After 16-18 hours of incubation at 37° C. with 5% CO2 in a humidified incubator, 5 μl of alamarBlue® (BioSource Intl. Inc., DAL 1100) was added to all of the wells. After 20-24 hours of incubation in 37° C. in a humidified incubator, fluorescence was then measured using a plate fluorometer.
Cell viability was measured using the alamarBlue® assay described above after stimulation with phorbol 12-myristate 13-acetate and ionomycin. The effects of varying concentrations of ibudilast, prednisolone and a combination of ibudilast and prednisolone were compared to control wells.

[2] = test system: white blood cells from human buffy coat; test: alamarBlue assay (toxicity/cell viability), lipopolysaccharide stimulated; details: PBMC, read-out: % Inhibition of Proliferation of PBMC LPS
Protocol: as §1, §2, §3, §4, §5
Cell viability was measured the alamarBlue® asay described above after stimulation with lipopolysaccharide. The effects of varying concentrations of ibudilast, prednisolone and a combination of ibudilast and prednisolone were compared to control wells. These wells were stimulated with lipopolysaccharide, but not receive ibudilast or prednisolone.

TNFα secretion [3] = test: TNFα secretion assay (ELISA), phorbol 12-myristate 13-acetate/ionomycin stimulated white blood cells; details: Homo sapiens, PBMC, read-out: % Inhibition TNFα PBMC PI
Protocol: (§6) The compound dilution matrix was assayed for the suppression of phorbol 12-myristate 13 acetate/ionomycin stimulated IL-1 and TNFα secretion as well as the suppression of lipopolysaccharide-stimulated TNFα secretion from human white blood cells using the ELISA method, as described below.
as §1, §2
(§7) The effects of test compound combinations on TNFα secretion were assayed in white blood cells from human buffy coat stimulated with phorbol 12-myistate 13-acetate, or lipopolysaccharide as follows. Human white blood cells from buffy coat were diluted 1:50 in media (RPMI; Gibco BRL, #11875-085), 10% fetal bovine serum (Gibco BRL, #25140-097), 2% penicillin/streptomycin (Gibco BRL, #15140-122)) and 50 μL of the diluted white blood cells were placed in each well of the final assay plate created in the above section. After 16-18 hours of incubation at 37° C. with 5% CO2 in a humidified incubator, the plate was centrifuged and the supernatant transferred to a white opaque polystyrene 384 well plate (NalgeNunc, Maxisorb) coated with an anti-TNFα antibody (PharMingen, #551220). After a two-hour incubation, the plate was washed (Tecan Powerwasher 384) with PBS containing 0.1% Tween 20 and incubated for one additional hour with biotin labeled anti-TNFα antibody (PharMingen, #554511) and HRP coupled to streptavidin (PharMingen, #13047E). The plate was then washed again with 0.1% Tween 20/PBS. An HRP-luminescent substrate was added to each well, and the light intensity of each well was measured using a plate luminometer.
as §3, §4
TNFα secretion was measured by ELISA as described above after stimulation with phorbol 12-myristate 13-acetate and ionomycin. The effects of varying concentrations of ibudilast, prednisolone and a combination of ibudilast and prednisolone were compared to control wells.

TNFα secretion [4] = test: TNFα secretion assay (ELISA), lipopolysaccharide stimulated white blood cells; details: Homo sapiens, PBMC, read-out: % Inhibition TNFα PBMC LPS
Protocol: as §6, §1, §2, §7, §3, §4
TNFα secretion was measured by ELISA as described above after stimulation with lipopolysaccharide. The effects of varying concentrations of ibudilast, prednisolone and a combination of ibudilast and prednisolone were compared to control wells.

Work on C[C@]12C=CC(=O)C=C1CC[C@@H]1[C@@H]2[C@@H](O)C[C@@]2(C)[C@H]1CC[C@]2(O)C(=O)CO [Prednisolone, prednisolone] yielded an inhibition at 0.0078 µM ([1]; prednisolone 0.0078 μM alone) of 4%, an inhibition at 0.016 µM ([1]; prednisolone 0.016 μM alone) of 1% and an inhibition at 0.031 µM ([1]; prednisolone 0.031 μM alone) of 1.7%. The inhibition at 0.062 µM ([1]; prednisolone 0.062 μM alone) was -1.7%, the inhibition at 0.12 µM ([1]; prednisolone 0.12 μM alone) was 3.2% and the inhibition at 0.25 µM ([1]; prednisolone 0.25 μM alone) was 4.6%. For the same compound, the inhibition at 0.5 µM ([1]; prednisolone 0.5 μM alone) was 0.19%, the inhibition at 1 µM ([1]; prednisolone 1 μM alone) was 3.1% and the inhibition at 0.0078 µM ([2]; prednisolone 0.0078 μM alone) was -1.7%. For the same compound, the inhibition at 0.016 µM ([2]; prednisolone 0.016 μM alone) was -1.5%, the inhibition at 0.031 µM ([2]; prednisolone 0.031 μM alone) was 0.64% and the inhibition at 0.062 µM ([2]; prednisolone 0.062 μM alone) was -1.2%. It also gave an inhibition at 0.12 µM ([2]; prednisolone 0.12 μM alone) of -1.8%, an inhibition at 0.25 µM ([2]; prednisolone 0.25 μM alone) of -1.3% and an inhibition at 0.5 µM ([2]; prednisolone 0.5 μM alone) of -3.3%. The inhibition at 1 µM ([2]; prednisolone 1 μM alone) was -3.8%, the inhibition at 0.0078 µM (TNFα secretion [3]; prednisolone 0.0078 μM alone) was 12% and the inhibition at 0.016 µM (TNFα secretion [3]; prednisolone 0.016 μM alone) was 17%. It also gave an inhibition at 0.031 µM (TNFα secretion [3]; prednisolone 0.031 μM alone) of 22%, an inhibition at 0.062 µM (TNFα secretion [3]; prednisolone 0.062 μM alone) of 22% and an inhibition at 0.12 µM (TNFα secretion [3]; prednisolone 0.12 μM alone) of 29%. The inhibition at 0.25 µM (TNFα secretion [3]; prednisolone 0.25 μM alone) was 32%, the inhibition at 0.5 µM (TNFα secretion [3]; prednisolone 0.5 μM alone) was 33% and the inhibition at 1 µM (TNFα secretion [3]; prednisolone 1 μM alone) was 36%. It also gave an inhibition at 0.0078 µM (TNFα secretion [4]; prednisolone 0.0078 μM alone) of 0.085%, an inhibition at 0.016 µM (TNFα secretion [4]; prednisolone 0.016 μM alone) of 17% and an inhibition at 0.031 µM (TNFα secretion [4]; prednisolone 0.031 μM alone) of 24%. The inhibition at 0.062 µM (TNFα secretion [4]; prednisolone 0.062 μM alone) was 47%, the inhibition at 0.12 µM (TNFα secretion [4]; prednisolone 0.12 μM alone) was 57% and the inhibition at 0.25 µM (TNFα secretion [4]; prednisolone 0.25 μM alone) was 66%. For the same compound, the inhibition at 0.5 µM (TNFα secretion [4]; prednisolone 0.5 μM alone) was 68% and the inhibition at 1 µM (TNFα secretion [4]; prednisolone 1 μM alone) was 70%.
